Patent US10669272B2, “Substituted naphthyridinone compounds useful as T cell activators” (BRISTOL-MYERS SQUIBB COMPANY, priority 2018, dated 2020)
Like-named read-outs stand apart in the source and are kept apart here.

How the values were obtained:
human DGKζ = biological target: T1, human DGKζ (Homo sapiens, UniProt Q13574); assay: DGKζ LIPGLO assay (extruded liposome substrate), in vitro DGK inhibition; assay type: biochemical; settings: liposome (LIPGLO) assay; read-out: DGKz LIPGLO IC50
T1 construct: TVMV protease cleavage site (C); Hexa-His (C); made in house; host or cells: Sf9 insect cells (baculovirus, Bac-to-Bac)

[1] = test system: OT-1 CD8+ T cells with SIINFEKL-loaded MC38 tumor cells; assay: Murine cytotoxic T lymphocyte assay (IFN-γ, OT-1 CTL with MC38 tumor cells); assay type: cell-based, mouse; settings: read-out: msCTL INFg IC50
Outline: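 OT-1 CD8+ T cells, expanded 5 days with OVA peptide (1 μg/mL) and mIL2, pretreated 1 h with DGK inhibitors, then co-cultured overnight at 37° C at 1:10 with MC38 cells pulsed 3 h with 1 μg/mL SIINFEKL. IFN-γ in 24 h supernatant by AlphaLISA.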

naïve human CD8 T cells = assay: Human CD8 T cells IFN-γ assay; assay type: cell-based; settings: normalized to 3 μM reference compound with anti-CD3 plus anti-CD28 as 100% activation, read-out: HuCD8 INFG Normalized EC50;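 further: Naïve human CD8 T cells stimulated with plate-bound anti-CD3 and soluble anti-CD28, IFN-γ in supernatant quantified by AlphaLISA and converted to pg/mL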
Procedure: Human CD8 T Cells IFN-γ Assay
Frozen naïve human CD8 T cells were thawed in AIM-V media, incubated for 2 h in 37° C., and counted. The 384-well tissue culture plate was coated overnight at 4° C. with 20 μL anti-human CD3 at 0.05 μg/mL in PBS, which was removed off the plate before 40,000 cells per 40 microliters CD8 T cells with 0.1 μg/mL soluble anti-human CD28 were added to each well. The compounds were transferred using an Echo liquid handler to the cell plate immediately after the cells were plated. After 20 h incubation at 37° C. incubator, 3 microliters per well supernatants transferred into a new 384-well white assay plate for cytokine measurement.
Interferon-γ (IFN-γ) was quantitated using the AlphLISA kit (Cat # AL217) as described by the manufacturer manual (Perkin Elmer). The counts from each well were converted to IFN-γ concentration (pg/mL).

Human venous whole blood = assay: Human whole blood IFN-γ assay; assay type: cell-based; settings: normalized to 3 μM reference compound with anti-CD3 plus anti-CD28 as 100% activation;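 further: blood from healthy donors exposed to compound for 1 h before stimulation with anti-CD3 and anti-CD28 at 1 µg/mL each, IFN-γ quantified in supernatant by AlphaLISA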
Procedure: Human Whole Blood IFN-γ Assay
Human venous whole blood (22.5 μL per well), obtained from healthy donors, was pre-treated with compounds for one hour at 37° C. in a humidified 95% air/5% CO2 incubator. The blood was stimulated with 2.5 μL anti-human CD3 and anti-CD28 mAb at a final concentration of 1 μg/mL each for 24 hours at 37° C. IFN-γ in the supernatants was measured using AlphLISA kit (Cat # AL217).

human DGKα = biological target: T2, human DGKα (Homo sapiens, UniProt P23743); assay: DGKα LIPGLO assay (extruded liposome substrate), in vitro DGK inhibition; assay type: biochemical; settings: liposome (LIPGLO) assay; read-out: DGKa LIPGLO IC50
T2 construct: TVMV protease cleavage site (C); Hexa-His (C); made in house; host or cells: Sf9 insect cells (baculovirus, Bac-to-Bac)

[2] = Homo sapiens, 24 h, human whole blood, read-out: INFg Whole Blood Normalized Agonist EC50
[3] = Homo sapiens, 24 h, read-out: INFg Whole Blood Normalized Agonist EC50, human whole blood

T2 sequence (P23743 with tags, fused parts or gaps): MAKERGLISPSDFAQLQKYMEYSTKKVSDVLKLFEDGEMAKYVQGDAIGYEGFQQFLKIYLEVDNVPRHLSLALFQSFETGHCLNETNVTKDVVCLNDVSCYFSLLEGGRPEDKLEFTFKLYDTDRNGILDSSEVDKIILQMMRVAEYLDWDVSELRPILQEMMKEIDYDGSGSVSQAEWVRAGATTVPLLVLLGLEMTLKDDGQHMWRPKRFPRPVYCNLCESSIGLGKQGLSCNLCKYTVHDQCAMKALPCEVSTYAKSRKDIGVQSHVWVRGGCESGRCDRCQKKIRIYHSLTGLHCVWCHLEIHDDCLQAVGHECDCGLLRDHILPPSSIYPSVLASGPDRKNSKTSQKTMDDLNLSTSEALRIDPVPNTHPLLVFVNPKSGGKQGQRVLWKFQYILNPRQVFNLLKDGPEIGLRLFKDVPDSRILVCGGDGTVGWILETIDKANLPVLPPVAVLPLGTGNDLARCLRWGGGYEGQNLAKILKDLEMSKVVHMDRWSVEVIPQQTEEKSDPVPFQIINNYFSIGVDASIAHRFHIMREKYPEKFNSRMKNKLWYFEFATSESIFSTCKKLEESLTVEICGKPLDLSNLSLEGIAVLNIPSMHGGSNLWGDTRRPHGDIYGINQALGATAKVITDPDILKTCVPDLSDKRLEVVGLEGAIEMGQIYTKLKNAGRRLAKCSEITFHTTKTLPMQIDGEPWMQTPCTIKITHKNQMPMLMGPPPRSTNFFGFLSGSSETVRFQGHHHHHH
T1 sequence (Q13574 with tags, fused parts or gaps isoform Q13574-4): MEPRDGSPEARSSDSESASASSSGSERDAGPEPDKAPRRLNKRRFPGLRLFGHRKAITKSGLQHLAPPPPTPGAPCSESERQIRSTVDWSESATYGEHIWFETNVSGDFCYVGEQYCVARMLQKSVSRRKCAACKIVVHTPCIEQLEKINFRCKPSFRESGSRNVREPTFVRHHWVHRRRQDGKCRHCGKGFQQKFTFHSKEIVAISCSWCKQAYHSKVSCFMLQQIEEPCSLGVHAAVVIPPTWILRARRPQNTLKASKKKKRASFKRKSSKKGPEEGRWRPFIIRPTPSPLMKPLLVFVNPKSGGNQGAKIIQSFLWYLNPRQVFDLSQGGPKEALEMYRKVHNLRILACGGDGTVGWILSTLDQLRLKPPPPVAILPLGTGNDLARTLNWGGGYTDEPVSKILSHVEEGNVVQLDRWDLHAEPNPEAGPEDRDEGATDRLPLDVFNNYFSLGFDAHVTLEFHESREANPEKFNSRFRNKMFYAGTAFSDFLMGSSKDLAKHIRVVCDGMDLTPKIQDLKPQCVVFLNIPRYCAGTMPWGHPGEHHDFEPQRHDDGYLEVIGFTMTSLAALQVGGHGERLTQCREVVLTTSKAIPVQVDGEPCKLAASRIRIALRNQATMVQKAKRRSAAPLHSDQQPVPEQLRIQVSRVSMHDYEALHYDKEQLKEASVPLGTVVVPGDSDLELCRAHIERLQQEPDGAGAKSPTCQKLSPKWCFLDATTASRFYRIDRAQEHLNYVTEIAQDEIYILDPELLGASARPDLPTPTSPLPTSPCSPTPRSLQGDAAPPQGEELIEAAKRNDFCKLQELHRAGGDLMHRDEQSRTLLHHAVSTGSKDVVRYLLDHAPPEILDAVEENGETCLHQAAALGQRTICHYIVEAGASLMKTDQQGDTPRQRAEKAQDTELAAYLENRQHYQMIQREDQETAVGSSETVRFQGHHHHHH

Row | SMILES | IC50 (human DGKζ) [µM] | IC50 [1] [nM] | EC50 (naïve human CD8 T cells) [nM] | IC50 (human DGKα) [µM] | IC50 ([1]; Mus musculus, MC-38) [nM] | EC50 (naïve human CD8 T cells; Homo sapiens, T-cell, 20 h) [nM] | EC50 (Human venous whole blood; [2]) [nM] | EC50 (Human venous whole blood; [3]) [nM] | further results
1 | COC(=O)C1CN(c2c(C#N)c(=O)n(C)c3ccc(C#N)nc23)CCN1C(c1ccc(F)cc1)c1ccc(F)cc1 (single isomer, unassigned) [Example 51, methyl 1-(bis(4-fluorophenyl)methyl)-4-(3,6-dicyano-1-methyl-2-oxo-1,2-dihydro-1,5-naphthyridin-4-yl)piperazine-2-carboxylate] | 2.1 | 1900 | 510 |  |  |  |  |  | EC50 (Human venous whole blood; human whole blood, read-out: INFg Whole Blood Normalized Agonist EC50): 1600 nM
2 | C[C@@H]1CN(c2c(C3CC3)c(=O)n(C)c3ccc(C#N)nc23)[C@@H](C)CN1C(c1ccc(F)cc1)c1ccc(F)cc1 [Example 20, 8-((2S,5R)-4-(bis(4-fluorophenyl)methyl)-2,5-dimethylpiperazin-1-yl)-7-cyclopropyl-5-methyl-6-oxo-5,6-dihydro-1,5-naphthyridine-2-carbonitrile] | 130 |  |  | 95 | 10000 | 10000 | 20000 |  | 
3 | C[C@@H]1CN(c2c(Cl)c(=O)n(C)c3ccc(C#N)nc23)[C@@H](C)CN1C(c1ccc(F)cc1)c1ccc(F)cc1 [Example 18, 8-((2S,5R)-4-(bis(4-fluorophenyl)methyl)-2,5-dimethylpiperazin-1-yl)-7-chloro-5-methyl-6-oxo-5,6-dihydro-1,5-naphthyridine-2-carbonitrile] | 12 |  |  | 0.8 | 10000 | 250 | 20000 |  | 
4 | C[C@H]1CN(C(c2ccc(F)cc2)c2ccc(F)cc2)[C@@H](C)CN1c1cc(=O)n(C)c2ccc(C#N)nc12 [Example 133, 8-((2S,5S)-4-(bis(4-fluorophenyl)methyl)-2,5-dimethylpiperazin-1-yl)-5-methyl-6-oxo-5,6-dihydro-1,5-naphthyridine-2-carbonitrile] |  |  |  |  | 1100 | 840 |  | 5800 | 
5 | C[C@@H]1CN(c2cc(=O)n(C)c3ccc(C#N)nc23)[C@@H](C)CN1C(c1ccc(F)cc1)c1ccccc1F (single isomer, unassigned) [Example 305] |  | 23 | 26 |  |  |  |  |  | EC50 (Human venous whole blood; read-out: INFg Whole Blood Normalized Agonist EC50, human whole blood): 680 nM
6 | CC(C)OC(=O)C1CN(c2c(C#N)c(=O)n(C)c3ccc(C#N)nc23)CCN1C(c1ccc(F)cc1)c1ccc(F)cc1 (single isomer, unassigned) [Example 65, Isopropyl 1-(bis(4-fluorophenyl)methyl)-4-(3,6-dicyano-1-methyl-2-oxo-1,2-dihydro-1,5-naphthyridin-4-yl)piperazine-2-carboxylate] |  | 8400 | 1700 | 240 |  |  | 16000 |  | 
7 | C[C@@H]1CN(c2c(Cl)c(=O)n(C)c3ccc(C#N)nc23)CCN1C(c1ccc(F)cc1)c1ccc(F)cc1 [Example 29, (R)-8-(4-(bis(4-fluorophenyl)methyl)-3-methylpiperazin-1-yl)-7-chloro-5-methyl-6-oxo-5,6-dihydro-1,5-naphthyridine-2-carbonitrile] |  |  |  |  | 37 | 18 |  | 1300 | 
8 | C[C@@H]1CN(c2cc(=O)n(C)c3ccc(C#N)nc23)[C@@H](C)CN1C(c1ccc(F)cc1)c1ccccc1F (single isomer, unassigned) [Example 304] |  | 47 | 8.5 |  |  |  |  | 490 | 
9 | C[C@@H]1CN(C(c2ccc(F)cc2)c2ccc(F)cc2)[C@@H](C)CN1c1cc(=O)n(C)c2ccc(C#N)nc12 [Example 4, 8-((2R,5S)-4-(bis(4-fluorophenyl)methyl)-2,5-dimethylpiperazin-1-yl)-5-methyl-6-oxo-5,6-dihydro-1,5-naphthyridine-2-carbonitrile] |  |  |  |  | 320 | 300 |  | 3500 | 
10 | C[C@@H]1CN(c2cc(=O)n(C)c3ccc(C#N)nc23)[C@@H](C)CN1C(c1ccccc1)c1ccc(F)cc1 (single isomer, unassigned) [Example 183] |  |  |  |  | 33 | 39 |  |  | EC50 (Human venous whole blood; Homo sapiens, human whole blood, read-out: INFg Whole Blood Normalized Agonist EC50): 700 nM
